Test results as given in ChEMBL document CHEMBL3611985, “Synthesis and structure-activity relationships of novel 9-oxime acylides with improved bactericidal activity” (2015).
In brackets after ≈: the same amount, converted by molar mass.

Assays:
Assay type in all cases: functional
Staphylococcus aureus [1] = assay: Antimicrobial activity against methicillin-resistant Staphylococcus aureus PU32 expressing inducible ermA incubated for 20 hrs by two-fold microbroth dilution method; settings: PU32, 20 h
Haemophilus influenzae [2] = assay: Antimicrobial activity against azithromycin-susceptible and ampicillin-resistant Haemophilus influenzae 11P037 incubated for 20 to 24 hrs by two-fold microbroth dilution method
Staphylococcus aureus [3] = assay: Antimicrobial activity against methicillin-resistant Staphylococcus aureus PU20 expressing constitutive ermC incubated for 20 hrs by two-fold microbroth dilution method; settings: PU20, 20 h
Streptococcus pneumoniae [4] = assay: Antimicrobial activity against Streptococcus pneumoniae 07P390 expressing constitutive ermB incubated for 20 to 24 hrs by two-fold microbroth dilution method
Streptococcus pneumoniae [5] = assay: Antimicrobial activity against erythromycin-susceptible Streptococcus pneumoniae ATCC 49619 incubated for 20 to 24 hrs by two-fold microbroth dilution method
Streptococcus pyogenes [6] = assay: Antimicrobial activity against Streptococcus pyogenes 01-968 expressing inducible ermA incubated for 20 to 24 hrs by two-fold microbroth dilution method
Streptococcus pneumoniae [7] = assay: Antimicrobial activity against penicillin-susceptible Streptococcus pneumoniae PU09 incubated for 20 to 24 hrs by two-fold microbroth dilution method
Moraxella catarrhalis [8] = assay: Bactericidal activity against erythromycin-susceptible Moraxella catarrhalis 11B366 incubated for 20 hrs followed by sub-culturing for 24 hrs in absence of compound
Streptococcus pyogenes [9] = assay: Bactericidal activity against Streptococcus pyogenes 01-968 expressing inducible ermA incubated for 20 to 24 hrs followed by sub-culturing for 24 hrs in absence of compound
Moraxella catarrhalis [10] = assay: Ratio of MBC to MIC against erythromycin-susceptible Moraxella catarrhalis 11B366
Staphylococcus aureus [11] = assay: Ratio of MBC to MIC against methicillin-resistant Staphylococcus aureus PU32 expressing inducible ermA
Haemophilus influenzae [12] = assay: Bactericidal activity against azithromycin-susceptible and ampicillin-resistant Haemophilus influenzae 11P037 incubated for 20 to 24 hrs followed by sub-culturing for 24 hrs in absence of compound
Haemophilus influenzae [13] = assay: Ratio of MBC to MIC against azithromycin-susceptible and ampicillin-resistant Haemophilus influenzae 11P037
Moraxella catarrhalis [14] = assay: Antimicrobial activity against erythromycin-susceptible Moraxella catarrhalis 11B366 incubated for 20 hrs by two-fold microbroth dilution method; settings: 11B366, 20 h
Streptococcus pyogenes [15] = assay: Ratio of MBC to MIC against Streptococcus pyogenes 12-207 expressing mef
Staphylococcus aureus [16] = assay: Bactericidal activity against methicillin-resistant Staphylococcus aureus PU32 expressing inducible ermA incubated for 20 hrs followed by sub-culturing for 24 hrs in absence of compound
Streptococcus pyogenes [17] = assay: Antimicrobial activity against Streptococcus pyogenes 12-207 expressing mef incubated for 20 to 24 hrs by two-fold microbroth dilution method
Streptococcus pyogenes [18] = assay: Bactericidal activity against Streptococcus pyogenes 12-207 expressing mef incubated for 20 to 24 hrs followed by sub-culturing for 24 hrs in absence of compound
Streptococcus pyogenes [19] = assay: Ratio of MBC to MIC against Streptococcus pyogenes 01-968 expressing inducible ermA

Row | SMILES | MIC (Staphylococcus aureus [1]) [µg/mL] | MIC (Haemophilus influenzae [2]) [µg/mL] | MIC (Staphylococcus aureus [3]) [µg/mL] | MIC (Streptococcus pneumoniae [4]) [µg/mL] | MIC (Streptococcus pneumoniae [5]) [µg/mL] | MIC (Streptococcus pyogenes [6]) [µg/mL] | MIC (Streptococcus pneumoniae [7]) [µg/mL] | MBC (Moraxella catarrhalis [8]) [µg/mL] | MBC (Streptococcus pyogenes [9]) [µg/mL] | Ratio (Moraxella catarrhalis [10]) | Ratio (Staphylococcus aureus [11]) | MBC (Haemophilus influenzae [12]) [µg/mL] | Ratio (Haemophilus influenzae [13]) | MIC (Moraxella catarrhalis [14]) [µg/mL] | Ratio (Streptococcus pyogenes [15]) | MBC (Staphylococcus aureus [16]) [µg/mL] | MIC (Streptococcus pyogenes [17]) [µg/mL] | MBC (Streptococcus pyogenes [18]) [µg/mL] | Ratio (Streptococcus pyogenes [19])
1 | CC[C@H]1OC(=O)[C@H](C)[C@@H](OC(=O)Cc2ccccn2)[C@H](C)[C@@H](O[C@@H]2O[C@H](C)C[C@H](N(C)C)[C@H]2O)[C@](C)(OC)C[C@@H](C)/C(=N\OCC#Cc2ccc([N+](=O)[O-])nc2)[C@H](C)[C@H]2OC(=O)O[C@@]21C | 0.25 (≈ 0.275 µM) | > 64 | > 64 | 1 (≈ 1.1 µM) | 0.031 (≈ 0.0341 µM) | 0.5 (≈ 0.549 µM) | 0.5 (≈ 0.549 µM) | – | – | – | – | – | – | – | – | – | – | – | –
2 | CC[C@H]1OC(=O)[C@H](C)[C@@H](OC(=O)Cc2ccccn2)[C@H](C)[C@@H](O[C@@H]2O[C@H](C)C[C@H](N(C)C)[C@H]2O)[C@](C)(OC)C[C@@H](C)/C(=N\OCC#Cc2cccc(NC(=O)Cc3ccccn3)n2)[C@H](C)[C@H]2OC(=O)O[C@@]21C | 2 (≈ 2 µM) | > 64 | > 64 | 1 (≈ 1 µM) | 0.125 (≈ 0.125 µM) | 4 (≈ 4 µM) | 2 (≈ 2 µM) | – | – | – | – | – | – | – | – | – | – | – | –
3 | CC[C@H]1OC(=O)[C@H](C)[C@@H](OC(=O)Cc2ccccn2)[C@H](C)[C@@H](O[C@@H]2O[C@H](C)C[C@H](N(C)C)[C@H]2O)[C@](C)(OC)C[C@@H](C)/C(=N\OCC#Cc2cncc(NC(=O)Cc3ccccn3)c2)[C@H](C)[C@H]2OC(=O)O[C@@]21C | 2 (≈ 2 µM) | > 64 | > 64 | 1 (≈ 1 µM) | 0.031 (≈ 0.031 µM) | 4 (≈ 4 µM) | 2 (≈ 2 µM) | – | – | – | – | – | – | – | – | – | – | – | –
4 | CC[C@H]1OC(=O)[C@H](C)[C@@H](OC(=O)Cc2ccccn2)[C@H](C)[C@@H](O[C@@H]2O[C@H](C)C[C@H](N(C)C)[C@H]2O)[C@](C)(OC)C[C@@H](C)/C(=N\OCC#Cc2ccc(NC(=O)Cc3ccccn3)nc2)[C@H](C)[C@H]2OC(=O)O[C@@]21C | 4 (≈ 4 µM) | > 64 | > 64 | 1 (≈ 1 µM) | 0.062 (≈ 0.0621 µM) | 4 (≈ 4 µM) | 1 (≈ 1 µM) | – | – | – | – | – | – | – | – | – | – | – | –
5 | CC[C@H]1OC(=O)[C@H](C)[C@@H](OC(=O)Cc2ccccn2)[C@H](C)[C@@H](O[C@@H]2O[C@H](C)C[C@H](N(C)C)[C@H]2O)[C@](C)(OC)C[C@@H](C)/C(=N\OCC#Cc2ccc(N)nc2)[C@H](C)[C@H]2OC(=O)O[C@@]21C | 0.5 (≈ 0.568 µM) | 32 (≈ 36.4 µM) | > 64 | 2 (≈ 2.27 µM) | 0.008 (≈ 0.00909 µM) | 1 (≈ 1.14 µM) | 0.5 (≈ 0.568 µM) | – | – | – | – | – | – | – | – | – | – | – | –
6 | CC[C@H]1OC(=O)[C@H](C)[C@@H](OC(=O)Cc2ccccn2)[C@H](C)[C@@H](O[C@@H]2O[C@H](C)C[C@H](N(C)C)[C@H]2O)[C@](C)(OC)C[C@@H](C)/C(=N\OC/C=C/c2cccnc2N)[C@H](C)[C@H]2OC(=O)O[C@@]21C | 1 (≈ 1.13 µM) | 32 (≈ 36.3 µM) | > 64 | 4 (≈ 4.53 µM) | 0.062 (≈ 0.0703 µM) | 2 (≈ 2.27 µM) | 1 (≈ 1.13 µM) | – | – | – | – | – | – | – | – | – | – | – | –
7 | CC[C@H]1OC(=O)[C@H](C)[C@@H](OC(=O)Cc2ccccn2)[C@H](C)[C@@H](O[C@@H]2O[C@H](C)C[C@H](N(C)C)[C@H]2O)[C@](C)(OC)C[C@@H](C)/C(=N\OC/C=C/c2ccnc(NC(=O)Cc3ccccn3)c2)[C@H](C)[C@H]2OC(=O)O[C@@]21C | 4 (≈ 4 µM) | > 64 | > 64 | 4 (≈ 4 µM) | 0.125 (≈ 0.125 µM) | 4 (≈ 4 µM) | 4 (≈ 4 µM) | – | – | – | – | – | – | – | – | – | – | – | –
8 | CC[C@H]1OC(=O)[C@H](C)[C@@H](OC(=O)Cc2ccccn2)[C@H](C)[C@@H](O[C@@H]2O[C@H](C)C[C@H](N(C)C)[C@H]2O)[C@](C)(OC)C[C@@H](C)/C(=N\OC/C=C/c2cncc(NC(=O)Cc3ccccn3)c2)[C@H](C)[C@H]2OC(=O)O[C@@]21C | 2 (≈ 2 µM) | > 64 | > 64 | 2 (≈ 2 µM) | 0.062 (≈ 0.0619 µM) | 4 (≈ 4 µM) | 2 (≈ 2 µM) | – | – | – | – | – | – | – | – | – | – | – | –
9 | CC[C@H]1OC(=O)[C@H](C)[C@@H](OC(=O)Cc2ccccn2)[C@H](C)[C@@H](O[C@@H]2O[C@H](C)C[C@H](N(C)C)[C@H]2O)[C@](C)(OC)C[C@@H](C)/C(=N\OC/C=C/c2ccc(NC(=O)Cc3ccccn3)nc2)[C@H](C)[C@H]2OC(=O)O[C@@]21C | 4 (≈ 4 µM) | > 64 | > 64 | 2 (≈ 2 µM) | 0.125 (≈ 0.125 µM) | 8 (≈ 7.99 µM) | 2 (≈ 2 µM) | – | – | – | – | – | – | – | – | – | – | – | –
10 | CC[C@H]1OC(=O)[C@H](C)[C@@H](OC(=O)Cc2ccccn2)[C@H](C)[C@@H](O[C@@H]2O[C@H](C)C[C@H](N(C)C)[C@H]2O)[C@](C)(OC)C[C@@H](C)/C(=N\OC/C=C/c2ccc(N)nc2)[C@H](C)[C@H]2OC(=O)O[C@@]21C | 0.5 (≈ 0.567 µM) | 32 (≈ 36.3 µM) | > 64 | 1 (≈ 1.13 µM) | 0.031 (≈ 0.0351 µM) | 4 (≈ 4.53 µM) | 1 (≈ 1.13 µM) | – | – | – | – | – | – | – | – | – | – | – | –
11 | CC[C@H]1OC(=O)[C@H](C)[C@@H](OC(=O)Cc2ccccn2)[C@H](C)[C@@H](O[C@@H]2O[C@H](C)C[C@H](N(C)C)[C@H]2O)[C@](C)(OC)C[C@@H](C)/C(=N\OCCCc2cncc(NC(=O)Cc3ccccn3)c2)[C@H](C)[C@H]2OC(=O)O[C@@]21C | 4 (≈ 3.99 µM) | > 64 | > 64 | 4 (≈ 3.99 µM) | 0.125 (≈ 0.125 µM) | 8 (≈ 7.97 µM) | 4 (≈ 3.99 µM) | – | – | – | – | – | – | – | – | – | – | – | –
12 | CC[C@H]1OC(=O)[C@H](C)[C@@H](OC(=O)Cc2ccccn2)[C@H](C)[C@@H](O[C@@H]2O[C@H](C)C[C@H](N(C)C)[C@H]2O)[C@](C)(OC)C[C@@H](C)/C(=N\OCCCc2ccc(NC(=O)Cc3ccccn3)nc2)[C@H](C)[C@H]2OC(=O)O[C@@]21C | 2 (≈ 1.99 µM) | > 64 | > 64 | 2 (≈ 1.99 µM) | 0.125 (≈ 0.125 µM) | 8 (≈ 7.97 µM) | 2 (≈ 1.99 µM) | – | – | – | – | – | – | – | – | – | – | – | –
13 | CC[C@H]1OC(=O)[C@H](C)[C@@H](O[C@H]2C[C@@](C)(OC)[C@@H](O)[C@H](C)O2)[C@H](C)[C@@H](O[C@@H]2O[C@H](C)C[C@H](N(C)C)[C@H]2O)[C@](C)(OC)C[C@@H](C)C(=O)[C@H](C)[C@@H](O)[C@]1(C)O [CLARITHROMYCIN] | 32 (≈ 42.8 µM) | 4 (≈ 5.35 µM) | > 64 | > 64 | 0.062 (≈ 0.0829 µM) | 4 (≈ 5.35 µM) | 2 (≈ 2.67 µM) | 0.25 (≈ 0.334 µM) | > 8 | 2 | >2 | 8 (≈ 10.7 µM) | 8 | 0.125 (≈ 0.167 µM) | 2 | > 16 | 16 (≈ 21.4 µM) | 32 (≈ 42.8 µM) | >8
14 | CC[C@H]1OC(=O)[C@H](C)C(=O)[C@H](C)[C@@H](O[C@@H]2O[C@H](C)C[C@H](N(C)C)[C@H]2O)[C@](C)(OC)C[C@@H](C)C(=O)[C@H](C)[C@H]2N(CCCCn3cnc(-c4cccnc4)c3)C(=O)O[C@]12C [TELITHROMYCIN] | 0.25 (≈ 0.308 µM) | 2 (≈ 2.46 µM) | > 64 | 0.062 (≈ 0.0764 µM) | 0.031 (≈ 0.0382 µM) | 2 (≈ 2.46 µM) | 0.25 (≈ 0.308 µM) | 0.25 (≈ 0.308 µM) | 0.125 (≈ 0.154 µM) | 1 | >8 | 4 (≈ 4.93 µM) | 4 | 0.25 (≈ 0.308 µM) | 2 | > 1 | 0.5 (≈ 0.616 µM) | 1 (≈ 1.23 µM) | –
